Where “and” joins values, the source holds several entries; their conditions need not be identical. Equal entries are not always repeated. Where two headings read alike, the source gives them in different places.
Key:
[1] = water
[2] = Electrochemical testing (Tafel Plot) of corrosion current and corrosion potential
Acute oral toxicity = format: in vivo; conditions: 5 g/kg in corn oil
Primary skin irritation = format: in vivo; conditions: 0.5 g in saline paste; for Skin irritation rating: in words
Draize eye irritation = format: in vivo; conditions: 100 mg; for Eye irritation rating: in words
[3] = Salt spray test, alkyd formulations (Example VI, FIG. 3); conditions: alkyd formulation, ASTM B117-73, in words
Method: One coat of paint was applied using a Henry K. Gardner Laboratory draw-down, with either a 6 mil or 8 mil draw-down blade. The draw-down speed was 1 inch per second. Such coat of paint was allowed to cure for two weeks under ambient conditions, in the case of both alkyd and latex paints. The dried coating thickness was measured with Elcometer Coating thickness gauge, Model #150/-FNIE. Acceptable thicknesses of the cured film were 2.5-3.5 mils.
Stormer viscosity (ASTM D562-55) for all alkyd paints was greater than 90, and for all latex paints was greater than 80.

[4] = Salt spray test, alkyd formulations (Example V, FIG. 1)
[5] = format: physicochemical; conditions: simulated rain solution saturated with the pigment; electrolyte pH about 4.2
[6] = overall conclusion in words
[7] = Tafel Plot, simulated acid rain saturated with pigment, SAE-1020 steel, 5.16 square centimeters
[8] = against saturated calomel electrode, simulated acid rain saturated with pigment

## NCCN.O=C([O-])CCCC(=O)[O-].[Zn+2] [Compound 2, Zinc Glutarate Ethylenediamine]
[1]
  Solubility: .16
  Solubility description: SS (key: PINS: practically insoluble (<.1 g/100cc H2 O); SS: slightly soluble (.1 to 1 g/100cc H2 O); MS: moderately soluble)

## NCCN.O=C([O-])CCCCC(=O)[O-].[Zn+2] [Compound 3, Zinc Adipate Ethylenediamine]
[2]; [7]
  Corrosion current (Icorr): 78 microamps
Acute oral toxicity; in vivo, 5000 mg/kg
  mortality: 0%
Primary skin irritation
  Skin irritation score: 0.42
  Skin irritation rating: minimally irritating
Draize eye irritation
  Eye irritation score: 19.0
  Eye irritation rating: moderately-irritating
[3]
  Salt spray durability, comparison: superior to "Zinc Yellow" (zinc chromate) in salt spray durability

## CC(N)CN.O=C([O-])CCCCC(=O)[O-].[Zn+2] [Compound 4, Zinc Adipate Propylenediamine]
[3]
  Salt spray durability, comparison: superior to "Zinc Yellow" (zinc chromate) in salt spray durability

## NCCN.O=C([O-])CCCCCCCC(=O)[O-].[Zn+2] [Compound 5, Zinc Azelate Ethylenediamine]
[2]; [7]
  Corrosion current (Icorr): 82 microamps
[2]; [8]
  Corrosion potential (Ecorr): -667 millovolts
[4]; alkyd formulation, combination with kaolin, in words
  Effect of kaolin on salt spray performance: anomolously reduced the performance
[1]
  Solubility: .21
  Solubility description: SS (key: PINS: practically insoluble (<.1 g/100cc H2 O); SS: slightly soluble (.1 to 1 g/100cc H2 O); MS: moderately soluble)

## NCCN.O=C([O-])CCCCCCCCC(=O)[O-].[Zn+2] [Compound 6, Zinc Sebacate Ethylenediamine]
[2]
  Corrosion current (Icorr): 170 microamps and > 100 microamps
  Corrosion potential (Ecorr): -462 millovolts
Primary skin irritation
  Skin irritation score: 0.13
  Skin irritation rating: minimally irritating
Draize eye irritation
  Eye irritation score: 37.2
  Eye irritation rating: severely irritating

## O=C([O-])CCCCCCCCCCC(=O)[O-].OCCN(CCO)CCO.[Zn+2] [Compound 10, Zinc Dibasate Triethanolamine]
[2]
  Corrosion current (Icorr): 93 microamps
  Corrosion potential (Ecorr): -580 millovolts
[3]
  Salt spray durability, comparison: superior to "Zinc Yellow" (zinc chromate) in salt spray durability

## NCCN.O=C([O-])CCCCCCCCCCC(=O)[O-].[Zn+2] [Compound 11, Zinc Dodecanedioate Ethylenediamine]
[2]; [7]
  Corrosion current (Icorr): 130 microamps and > 100 microamps
[3]
  Salt spray durability, comparison: superior to "Zinc Yellow" (zinc chromate) in salt spray durability
[1]
  Solubility: .015
  Solubility description: PINS (key: PINS: practically insoluble (<.1 g/100cc H2 O); SS: slightly soluble (.1 to 1 g/100cc H2 O); MS: moderately soluble)

## CCNCC.O=C([O-])CCCCCCCCCCC(=O)[O-].[Zn+2] [Compound 12, Zinc Dodecanedioate Diethylamine]
[2]
  Corrosion current (Icorr): 197 microamps and > 100 microamps

## NCCN.O=C([O-])c1ccccc1C(=O)[O-].[Zn+2] [Compound 17, Zinc Phthalate Ethylenediamine]
[2]
  Corrosion current (Icorr): 83 microamps
Primary skin irritation
  Skin irritation score: 0.00
  Skin irritation rating: non-irritating
[1]
  Solubility: .02
  Solubility description: PINS (key: PINS: practically insoluble (<.1 g/100cc H2 O); SS: slightly soluble (.1 to 1 g/100cc H2 O); MS: moderately soluble)

## NCCN.O=C([O-])c1cccc(C(=O)[O-])c1.[Zn+2] [Compound 18, Zinc Isophthalate Ethylenediamine]
[3]
  Salt spray durability, comparison: superior to "Zinc Yellow" (zinc chromate) in salt spray durability
[1]
  Solubility: 1.13

## NCCN.O=C([O-])c1ccc(C(=O)[O-])cc1.[Zn+2] [Compound 19, Zinc Terephthalate Ethylenediamine]
[1]
  Solubility: .66
  Solubility description: SS (key: PINS: practically insoluble (<.1 g/100cc H2 O); SS: slightly soluble (.1 to 1 g/100cc H2 O); MS: moderately soluble)

## Zinc Dibasate Diethylamine [Compound 9]
[2]
  Corrosion current (Icorr): 30 microamps
  Corrosion current (Icorr), second test: 177 microamps and > 100 microamps
  Corrosion potential (Ecorr): -570 millovolts
Acute oral toxicity
  Oral acute toxicity, mortality: 0%
Draize eye irritation
  Eye irritation score: 5.5
  Eye irritation rating: mildly irritating

## Zinc Dibasate Dimethylamine [Compound 21]
[2]
  Corrosion current (Icorr): 82 microamps
  Corrosion potential (Ecorr): -610 millovolts

## Zinc Dibasate Piperidine [Compound 24]
[2]
  Corrosion current (Icorr): 40 microamps
  Corrosion potential (Ecorr): -610 millovolts

## Zinc Dibasate Propylenediamine [Compound 8]
[1]
  Solubility: .16
  Solubility description: SS (key: PINS: practically insoluble (<.1 g/100cc H2 O); SS: slightly soluble (.1 to 1 g/100cc H2 O); MS: moderately soluble)

## Zinc Dibasate Pyridine [Compound 23]
[2]; [7]
  Corrosion current (Icorr): 60 microamps
[2]; [8]
  Corrosion potential (Ecorr): -550 millovolts
[5]
  pH: 7.0

## Zinc Dibasate-1,2-Diaminopropane [8^(3)]
[2]; [7]
  Corrosion current (Icorr): 90 microamps
[2]; [8]
  Corrosion potential (Ecorr): -570 millovolts
[5]
  pH: 7.55

## Zinc Quinizarinate Ethylenediamine [Compound 22]
[2]; [7]
  Corrosion current (Icorr): 84 microamps
[2]; [8]
  Corrosion potential (Ecorr): -570 millovolts

## Zinc Sulfonyldiphenolate Ethylenediamine [Compound 15]
[2]
  Corrosion current (Icorr): 170 microamps and > 100 microamps
  Corrosion potential (Ecorr): -592 millovolts
Primary skin irritation
  Skin irritation score: 0.08
  Skin irritation rating: non-irritating
Draize eye irritation
  Eye irritation score: 31.0
  Eye irritation rating: severely irritating

## Zinc Thiodiphenolate Ethylenediamine [Compound 14]
[2]
  Corrosion current (Icorr): 52.5 microamps
  Corrosion potential (Ecorr): -570 millovolts
Draize eye irritation
  Eye irritation score: 53.7
  Eye irritation rating: extremely irritating
[4]
  Effect of kaolin on salt spray performance: enhanced the performance
[6]
  Toxicity characteristics: unacceptable toxicity characteristics

## Zinc Thiodiphenolate Propylenediamine [Compound 20]
[2]
  Corrosion current (Icorr): 46 microamps
  Corrosion potential (Ecorr): -560 millovolts
